Data taken from patent US9695123B2, “Microbiocides” (Syngenta Participations AG, priority 2013, dated 2017).

Assays:
[1] = tested on: Blumeria graminis f. Sp. Tritici (Erysiphe graminis f. Sp. Tritici); assay: Blumeria graminis f. sp. tritici / wheat / leaf disc preventative (powdery mildew on wheat); format: in vivo; settings: foliar, wheat leaf disc cv. Kanzler, inoculated 1 day after application, assessed 6-8 days after application, read-out: disease control
Description: Fungicidal Activity Against Blumeria graminis f. Sp. Tritici (Erysiphe graminis f. Sp. Tritici)/Wheat/Leaf Disc Preventative (Powdery Mildew on Wheat)
Wheat leaf segments cv. Kanzler were placed on agar in a multiwell plate (24-well format) and sprayed with the formulated test compound diluted in water. The leaf disks were inoculated by shaking powdery mildew infected plants above the test plates 1 day after application. The inoculated leaf disks were incubated at 20° C. and 60% rh under a light regime of 24 h darkness followed by 12 h light/12 h darkness in a climate chamber and the activity of a compound was assessed as percent disease control compared to untreated when an appropriate level of disease damage appears on untreated check leaf segments (6-8 days after application).

[2] = tested on: Puccinia recondite f. Sp. Tritici; assay: Puccinia recondita f. sp. tritici / wheat / leaf disc preventative (brown rust); format: in vivo; settings: foliar, wheat leaf disc cv. Kanzler, inoculated 1 day after application, assessed 7-9 days after application, read-out: disease control
Description: Fungicidal Activity Against Puccinia recondite f. Sp. Tritici/Wheat/Leaf Disc Preventative (Brown Rust) Wheat leaf segments cv. Kanzler were placed on agar in multiwell plates (24-well format) and sprayed with the formulated test compound diluted in water. The leaf disks were inoculated with a spore suspension of the fungus 1 day after application. The inoculated leaf segments were incubated at 19° C. and 75% rh under a light regime of 12 h light/12 h darkness in a climate cabinet and the activity of a compound was assessed as percent disease control compared to untreated when an appropriate level of disease damage appears in untreated check leaf segments (7-9 days after application).

[3] = tested on: Puccinia recondita f. Sp. Tritici; assay: Puccinia recondita f. sp. tritici / wheat / leaf disc curative (brown rust); format: in vivo; settings: foliar, 192 h, applied one day after inoculation, assessed 8 dpi, read-out: disease control
Description: Fungicidal Activity Against Puccinia recondita f. Sp. Tritici/Wheat/Leaf Disc Curative (Brown Rust) Wheat leaf segments are placed on agar in multiwell plates (24-well format). The leaf disks are then inoculated with a spore suspension of the fungus. One day after inoculation the test solution is applied. After appropriate incubation the activity of a compound is assessed 8 dpi (days after inoculation) as curative fungicidal activity. Dose range: 200-22 ppm.

[4] = tested on: Botryotinia fuckeliana (Botrytis cinerea); assay: Botryotinia fuckeliana (Botrytis cinerea) / liquid culture (gray mould); format: cell-based; settings: 72 h, liquid culture (Vogels broth), inhibition of growth photometrically 3-4 days after application, read-out: disease control
Description: (§1) Fungicidal Activity Against Botryotinia fuckeliana (Botrytis cinerea)/Liquid Culture (Gray Mould) Conidia of the fungus from cryogenic storage were directly mixed into nutrient broth (Vogels broth). After placing a (DMSO) solution of test compound into a microtiter plate (96-well format), the nutrient broth containing the fungal spores was added. The test plates were incubated at 24° C. and the inhibition of growth was determined photometrically 3-4 days after application.

[5] = tested on: Mycosphaerella arachidis (Cercospora arachidicola); assay: Mycosphaerella arachidis (Cercospora arachidicola) / liquid culture (early leaf spot); format: cell-based; settings: 96 h, liquid culture (PDB), inhibition of growth photometrically 4-5 days after application, read-out: disease control
Description: as §1, with “Mycosphaerella arachidis (Cercospora arachidicola)/Liquid” for “Botryotinia fuckeliana (Botrytis cinerea)/Liquid”, “(Early Leaf Spot)” for “(Gray Mould)”, “(PDB potato dextrose” for “(Vogels”, “4-5” for “3-4”

[6] = tested on: Mycosphaerella graminicola (Septoria tritici); assay: Mycosphaerella graminicola (Septoria tritici) / liquid culture (Septoria blotch); format: cell-based; settings: Zymoseptoria tritici, 96 h, liquid culture (PDB), inhibition of growth photometrically 4-5 days after application, read-out: disease control
Description: as §1, with “Mycosphaerella graminicola (Septoria tritici)/Liquid” for “Botryotinia fuckeliana (Botrytis cinerea)/Liquid”, “(Septoria Blotch)” for “(Gray Mould)”, “(PDB potato dextrose” for “(Vogels”, “4-5” for “3-4”

[7] = tested on: Gaeumannomyces graminis; assay: Gaeumannomyces graminis / liquid culture (take-all of cereals); format: cell-based; settings: 96 h, liquid culture (PDB), inhibition of growth photometrically 4-5 days after application, read-out: disease control
Description: Fungicidal Activity Against Gaeumannomyces graminis/Liquid Culture (Take-all of Cereals) Mycelial fragments of the fungus from cryogenic storage were directly mixed into nutrient broth (PDB potato dextrose broth). After placing a (DMSO) solution of test compound into a microtiter plate (96-well format), the nutrient broth containing the fungal spores is added. The test plates were incubated at 24° C. and the inhibition of growth was determined photometrically 4-5 days after application.

[8] = tested on: Fusarium culmorum; assay: Fusarium culmorum / liquid culture (root rot); format: cell-based; settings: liquid culture (PDB), inhibition of growth photometrically after 48 hrs, read-out: disease control
Description: Fungicidal Activity Against Fusarium culmorum/Liquid Culture (Root Rot)
Conidia of the fungus from cryogenic storage were directly mixed into nutrient broth (PDB potato dextrose broth). After placing a (DMSO) solution of the test compounds into a microtiter plate (96-well format) the nutrient broth containing the fungal spores was added. The test plates were incubated at 24 C and the inhibition of growth was determined photometrically after 48 hrs.

Compound	pest or weed control at 200 ppm [1] [%]	pest or weed control at 200 ppm [2] [%]	pest or weed control at 200 ppm [3] [%]	inhibition of growth at 200 ppm [4] [%]	inhibition of growth at 200 ppm [5] [%]	inhibition of growth at 200 ppm [6] [%]	inhibition of growth at 200 ppm [7] [%]	inhibition of growth at 200 ppm [8] [%]	melting point [°C]
OC(Cn1cncn1)(c1ccc(C#CC2CC2)cc1)C(F)(F)c1ccccn1 (centres unmarked) [Compound 7]	≥ 80	≥ 80	≥ 80	≥ 80	≥ 80	≥ 80	≥ 80	≥ 80	–
N#CC(Cc1cccnc1)c1ccc(C#CC2CC2)cc1F (centres unmarked) [Compound 10]	≥ 80	≥ 80	≥ 80	≥ 80	≥ 80	≥ 80	≥ 80	≥ 80	–
CCCC#Cc1ccc(C(O)(Cn2cncn2)C(F)(F)c2ccc(Cl)cn2)cc1 (centres unmarked) [Compound 12]	≥ 80	≥ 80	≥ 80	≥ 80	≥ 80	≥ 80	≥ 80	≥ 80	124 to 128
CC(C)C#Cc1ccc(C(O)(Cn2cncn2)C(F)(F)c2ccc(Cl)cn2)cc1 (centres unmarked) [Compound 11]	≥ 80	≥ 80	≥ 80	≥ 80	≥ 80	≥ 80	≥ 80	≥ 80	128 to 132
N#CC(Cc1cccnc1)c1ccc(C#CC2CC2)cc1 (centres unmarked) [Compound 1]	≥ 80	–	≥ 80	≥ 80	≥ 80	≥ 80	≥ 80	≥ 80	–
N#CC(Cc1cncnc1)c1ccc(C#CC2CC2)cc1 (centres unmarked) [Compound 2]	≥ 80	≥ 80	≥ 80	–	≥ 80	≥ 80	≥ 80	≥ 80	–
Cc1cncc(CC(C#N)c2ccc(C#CC3CC3)cc2)c1 (centres unmarked) [Compound 3]	≥ 80	–	–	≥ 80	≥ 80	≥ 80	≥ 80	≥ 80	–
OC(Cn1ccnc1)(c1ccc(C#CC2CC2)cc1)C(F)(F)c1ccccn1 (centres unmarked) [Compound 6]	≥ 80	≥ 80	≥ 80	≥ 80	≥ 80	≥ 80	≥ 80	–	–
OC(Cn1ccnc1)c1ccc(C#CC2CC2)cc1Cl (centres unmarked) [Compound 5]	≥ 80	≥ 80	≥ 80	≥ 80	≥ 80	–	–	–	–
OC(Cn1cncn1)(c1ccc(C#CC2CC2)cc1)C(F)(F)c1ccc(Cl)cn1 (centres unmarked) [Compound 13]	≥ 80	≥ 80	≥ 80	≥ 80	≥ 80	≥ 80	–	≥ 80	88 to 94
